Experimental findings from US7700566B2, “Mosquito control method” (priority 2006, dated 2010) are described below.

For the experiment, the system named is Aedes albopictus (Asian Tiger Mosquito) larvae. Briefly: Larval development of Aedes albopictus in sugar-containing aqueous environment. Format: in vivo. Conditions: single sugar. The method, then:
The combinations and ratios of sugars experimentally tested to date have been chosen to be generally equivalent to the combinations and ratios of sugars found in natural nectars. For example, a 5% tangerine nectar equivalent solution is created by dissolving approximately 6.2 grams of sucrose, approximately 1.9 grams of dextrose (glucose) and approximately 1.9 grams of fructose in 200 ml of water. This provides a solution that is approximately 3.1% sucrose, approximately 0.95% dextrose and approximately 0.95% fructose. A 5% strawberry nectar equivalent solution is created by dissolving approximately 0.7 grams of sucrose, approximately 5.3 grams of dextrose (glucose) and approximately 4.0 grams of fructose in 200 ml of water. This provides a solution that is approximately 0.35% sucrose, approximately 2.65% dextrose and approximately 2.0% fructose. A 5% white mangrove nectar equivalent solution is created by dissolving approximately 2.2 grams of sucrose, approximately 3.2 grams of dextrose (glucose) and approximately 4.6 grams of fructose in 200 ml of water. This provides a solution that is approximately 1.1% sucrose, approximately 01.6% dextrose and approximately 2.3% fructose. The three sugars sucrose, dextrose and fructose were also tested independently in 5% aqueous solutions. Lower concentrations of 0.5%, 1.0% and above of the nectar equivalent solutions and independent sugars were also prepared and tested.
In tests using Aedes albopictus (Asian Tiger Mosquito) or Aedes aegypti (Yellow Fever Mosquito) larvae, 5% solutions of each of the tangerine, strawberry and white mangrove nectar equivalent solutions were independently produced using either phosphate buffered saline or pure water in conjunction with the sugars to create the aqueous environments. Larvae were then introduced into the 5% solution aqueous environments in varying numbers. […] In a further test, liver powder was added to the various solutions above as a nutrient to spur larval development.

Consider `O=C(CO)[C@@H](O)[C@H](O)[C@H](O)CO` [fructose], for which the “larvae emerged as adults” value (0.5% solution) was 100%. Moreover, where the note is “5% solution”, the “larval development past the second instar stage” value was “no larvae developed past the second instar stage”.

`OC[C@H]1O[C@@](CO)(O[C@H]2O[C@H](CO)[C@@H](O)[C@H](O)[C@H]2O)[C@@H](O)[C@@H]1O` [sucrose]: the “larvae emerged as adults” value (0.5% solution) is on record as 77% and the “larvae emerged as adults” value (5% solution) is reported as 13%.
